Test results as given in US20230019491A1, “PYRIMIDINE TBK/IKKe INHIBITOR COMPOUNDS AND USES THEREOF” (Merck Patent GmbH, priority 2017, published 2023).

What was measured:
TBK1 = molecular target: T1, TBK1 (Homo sapiens, UniProt Q9UHD2); test: TBK biochemical assay; conditions: 10 point 1:4 dose response, 30 uM top concentration, 90 min at 25° C., LabChip EZ Reader II; read-out: TBK1_IC50
T1 sequence (Q9UHD2 1-729): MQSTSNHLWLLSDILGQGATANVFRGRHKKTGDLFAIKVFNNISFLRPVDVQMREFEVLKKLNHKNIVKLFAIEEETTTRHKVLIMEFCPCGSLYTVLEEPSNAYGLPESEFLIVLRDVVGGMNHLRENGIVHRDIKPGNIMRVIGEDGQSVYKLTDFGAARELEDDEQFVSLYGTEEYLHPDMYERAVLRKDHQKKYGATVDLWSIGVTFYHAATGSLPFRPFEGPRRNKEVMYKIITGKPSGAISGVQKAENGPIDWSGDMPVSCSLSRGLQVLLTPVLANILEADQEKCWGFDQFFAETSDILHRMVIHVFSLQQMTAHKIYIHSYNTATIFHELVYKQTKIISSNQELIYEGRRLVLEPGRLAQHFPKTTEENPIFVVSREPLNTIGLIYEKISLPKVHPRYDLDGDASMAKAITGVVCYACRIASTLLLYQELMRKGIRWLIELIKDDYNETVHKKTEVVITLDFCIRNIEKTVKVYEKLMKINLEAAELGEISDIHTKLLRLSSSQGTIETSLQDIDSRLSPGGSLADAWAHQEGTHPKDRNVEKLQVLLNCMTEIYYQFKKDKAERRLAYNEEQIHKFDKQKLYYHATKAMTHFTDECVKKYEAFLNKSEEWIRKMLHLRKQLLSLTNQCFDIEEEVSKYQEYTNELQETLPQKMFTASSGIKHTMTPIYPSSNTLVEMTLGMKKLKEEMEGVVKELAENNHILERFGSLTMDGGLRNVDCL
Outline: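 Substrate and product were separated and quantified by microfluidic mobility-shift read (LabChip). 10 uM staurosporine served as the full-inhibition control, and the reference compound was tested from 1 uM final.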

IKKε = molecular target: T2, IKKε (Homo sapiens, UniProt Q14164); test: IKKε biochemical assay; conditions: 10 point 1:4 dose response, 30 uM top concentration, 90 min at 25° C., LabChip EZ Reader II; read-out: IKKε_IC50
T2 sequence (Q14164 1-716): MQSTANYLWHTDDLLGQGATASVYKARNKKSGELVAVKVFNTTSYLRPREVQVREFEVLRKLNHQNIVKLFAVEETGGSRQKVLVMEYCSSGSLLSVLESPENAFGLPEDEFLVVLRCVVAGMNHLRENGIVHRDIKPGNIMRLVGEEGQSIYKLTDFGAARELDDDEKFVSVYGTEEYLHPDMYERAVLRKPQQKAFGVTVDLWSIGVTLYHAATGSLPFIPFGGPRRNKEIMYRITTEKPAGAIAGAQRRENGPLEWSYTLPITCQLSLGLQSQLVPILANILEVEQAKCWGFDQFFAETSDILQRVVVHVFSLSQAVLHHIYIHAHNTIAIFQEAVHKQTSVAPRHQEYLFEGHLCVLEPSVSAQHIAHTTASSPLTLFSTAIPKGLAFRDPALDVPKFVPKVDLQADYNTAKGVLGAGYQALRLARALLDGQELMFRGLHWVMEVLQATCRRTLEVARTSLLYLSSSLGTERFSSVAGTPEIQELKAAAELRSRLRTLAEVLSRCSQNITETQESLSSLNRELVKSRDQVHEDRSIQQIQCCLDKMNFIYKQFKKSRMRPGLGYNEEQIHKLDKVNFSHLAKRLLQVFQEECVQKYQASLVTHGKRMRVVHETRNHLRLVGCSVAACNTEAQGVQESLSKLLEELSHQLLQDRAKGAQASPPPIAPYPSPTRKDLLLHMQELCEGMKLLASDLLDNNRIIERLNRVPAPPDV
Outline: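 Compounds in 1% DMSO final were incubated with IKKε enzyme and substrate at 25° C. for 90 min, then stopped. Substrate and product peaks were resolved by LabChip EZ Reader II mobility-shift read-out. Staurosporine at 10 uM final served as the full-inhibition control.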

Structure (SMILES): COc1nc(Nc2nccc(-c3ccc(OCC4CN(C(=O)[C@@H](C)O)C4)c(C#N)c3)n2)ccc1N1CCN(C2COC2)CC1 [Example 280, 2-([1-[(2R)-2-hydroxypropanoyl]azetidin-3-yl]methoxy)-5-[2-([6-methoxy-5-[4-(oxetan-3-yl)piperazin-1-yl]pyridin-2-yl]amino)pyrimidin-4-yl]benzonitrile]
- IC50 (TBK1): 0.1 to 1 µM
- IC50 (IKKε): 0.1 to 1 µM

Structure (SMILES): COc1nc(Nc2nccc(-c3ccc(OC4CCOCC4)c(C#N)n3)n2)ccc1C(=O)N1CCCCC1 [Example 30, 6-[2-([6-methoxy-5-[(piperidin-1-yl)carbonyl]pyridin-2-yl]amino)pyrimidin-4-yl]-3-(oxan-4-yloxy)pyridine-2-carbonitrile]
- IC50 (TBK1): < 0.1 µM
- IC50 (IKKε): < 0.1 µM

Structure (SMILES): COc1nc(Nc2nccc(-c3ccc(OC4CCN(C(=O)[C@@H](C)O)CC4(F)F)c(C#N)c3)n2)ccc1N1CCN(C)[C@H](C)C1 (stereo partly drawn) [Example 103, 2-[3,3-Difluoro-1-((R)-2-hydroxy-propionyl)-piperidin-4-yloxy]-5-{2-[5-((R)-3,4-dimethyl-piperazin-1-yl)-6-methoxy-pyridin-2-ylamino]-pyrimidin-4-yl}-benzonitrile]
- IC50 (TBK1): < 0.1 µM
- IC50 (IKKε): < 0.1 µM

Structure (SMILES): COc1nc(Nc2nccc(-c3ccc(OC4(C)CCN(C(=O)[C@@H](O)CO)CC4(F)F)c(C#N)c3)n2)ccc1N1CCN(C2COC2)CC1 (stereo partly drawn) [Example 264, 2-[1-((S)-2,3-Dihydroxy-propionyl)-3,3-difluoro-4-methyl-piperidin-4-yloxy]-5-{2-[6-methoxy-5-(4-oxetan-3-yl-piperazin-1-yl)-pyridin-2-ylamino]-pyrimidin-4-yl}-benzonitrile]
- IC50 (TBK1): < 0.1 µM
- IC50 (IKKε): < 0.1 µM

Structure (SMILES): COc1nc(Nc2nccc(-c3ccc(OC4CCN(C(=O)C5CCO5)CC4(F)F)c(C#N)c3)n2)ccc1N1CCN(C2COC2)CC1 (stereo not drawn) [Example 250, 2-[3,3-Difluoro-1-(oxetane-2-carbonyl)-piperidin-4-yloxy]-5-{2-[6-methoxy-5-(4-oxetan-3-yl-piperazin-1-yl)-pyridin-2-ylamino]-pyrimidin-4-yl}-benzonitrile]
- IC50 (TBK1): < 0.1 µM
- IC50 (IKKε): < 0.1 µM

Structure (SMILES): COc1nc(Nc2nccc(-c3cnc(OC4CCN(C(=O)[C@H](C)O)CC4(F)F)c(C#N)c3)n2)ccc1N1CCN(C2COC2)CC1 (stereo partly drawn) [Example 305, 2-([3,3-difluoro-1-[(2S)-2-hydroxypropanoyl]piperidin-4-yl]oxy)-5-[2-([6-methoxy-5-[4-(oxetan-3-yl)piperazin-1-yl]pyridin-2-yl]amino)pyrimidin-4-yl]pyridine-3-carbonitrile]
- IC50 (TBK1): < 0.1 µM
- IC50 (IKKε): < 0.1 µM

Structure (SMILES): COc1nc(Nc2ncc(F)c(-c3ccc(OC4CCOCC4)c(C#N)c3)n2)ccc1N1CCN(C)CC1 [Example 67, 5-{5-Fluoro-2-[6-methoxy-5-(4-methyl-piperazin-1-yl)-pyridin-2-ylamino]-pyrimidin-4-yl}-2-(tetrahydro-pyran-4-yloxy)-benzonitrile]
- IC50 (TBK1): < 0.1 µM
- IC50 (IKKε): < 0.1 µM

Structure (SMILES): COc1nc(Nc2nccc(-c3ccc(OC4CCN(C(=O)CC#N)CC4(F)F)c(C#N)c3)n2)ccc1N1CCN(C2COC2)CC1 (stereo not drawn) [Example 253, 2-[1-(2-Cyano-acetyl)-3,3-difluoro-piperidin-4-yloxy]-5-{2-[6-methoxy-5-(4-oxetan-3-yl-piperazin-1-yl)-pyridin-2-ylamino]-pyrimidin-4-yl}-benzonitrile]
- IC50 (TBK1): < 0.1 µM
- IC50 (IKKε): < 0.1 µM

Structure (SMILES): CN1CCC(Oc2ccc(-c3ccnc(Nc4ccc(N5CCN(C)CC5)cn4)n3)cc2C#N)CC1 [Example 83, 5-(2-[[5-(4-methylpiperazin-1-yl)pyridin-2-yl]amino]pyrimidin-4-yl)-2-[(1-methylpiperidin-4-yl)oxy]benzonitrile]
- IC50 (TBK1): > 5 µM
- IC50 (IKKε): 1 to 5 µM

Structure (SMILES): C[C@H](O)C(=O)N1CCC(Oc2ccc(-c3ccnc(Nc4ccccc4)n3)cc2C#N)C(F)(F)C1 (stereo partly drawn) [Example 209, 2-[3,3-Difluoro-1-((S)-2-hydroxy-propionyl)-piperidin-4-yloxy]-5-(2-phenylamino-pyrimidin-4-yl)-benzonitrile]
- IC50 (TBK1): < 0.1 µM
- IC50 (IKKε): < 0.1 µM

Structure (SMILES): COc1nc(Nc2nccc(-c3ccc(OC4CN(C(=O)[C@@H](C)O)C4)c(C#N)c3)n2)ccc1N1CCN(C2COC2)CC1 [Example 176, 2-([1-[(2R)-2-hydroxypropanoyl]azetidin-3-yl]oxy)-5-[2-([6-methoxy-5-[4-(oxetan-3-yl)piperazin-1-yl]pyridin-2-yl]amino)pyrimidin-4-yl]benzonitrile]
- IC50 (TBK1): 0.1 to 1 µM
- IC50 (IKKε): 1 to 5 µM

Structure (SMILES): COc1cc(Nc2nccc(-c3cc(C#N)c(OC4CCOCC4)cn3)n2)cnc1N1CCN(C)CC1 [Example 56, 2-(2-[[5-methoxy-6-(4-methylpiperazin-1-yl)pyridin-3-yl]amino]pyrimidin-4-yl)-5-(oxan-4-yloxy)pyridine-4-carbonitrile]
- IC50 (TBK1): 0.1 to 1 µM
- IC50 (IKKε): 0.1 to 1 µM

Structure (SMILES): COc1nc(Nc2nccc(-c3ccc(OC4(C)CCN(C(=O)[C@H](C)O)CC4)c(C#N)c3)n2)ccc1N1CCN(C2COC2)CC1 [Example 268, 2-[1-((S)-2-Hydroxy-propionyl)-4-methyl-piperidin-4-yloxy]-5-{2-[6-methoxy-5-(4-oxetan-3-yl-piperazin-1-yl)-pyridin-2-ylamino]-pyrimidin-4-yl}-benzonitrile]
- IC50 (TBK1): < 0.1 µM
- IC50 (IKKε): 0.1 to 1 µM

Structure (SMILES): COc1nc(Nc2nccc(-c3ccc(OC4CCOCC4)c(C#N)c3)n2)ccc1C(=O)N1C2CCCC1COC2 [Example 16, 5-(2-[[6-methoxy-5-([3-oxa-9-azabicyclo[3.3.1]nonan-9-yl]carbonyl)pyridin-2-yl]amino]pyrimidin-4-yl)-2-(oxan-4-yloxy)benzonitrile]
- IC50 (TBK1): < 0.1 µM
- IC50 (IKKε): < 0.1 µM

Structure (SMILES): COc1nc(Nc2nccc(-c3ccc(OC4CCN(C(=O)[C@H](C)O)CC4(F)F)c(C#N)c3)n2)ccc1N1CCN(C)[C@H](C)C1 (stereo partly drawn) [Example 106, 2-[3,3-Difluoro-1-((S)-2-hydroxy-propionyl)-piperidin-4-yloxy]-5-{2-[5-((R)-3,4-dimethyl-piperazin-1-yl)-6-methoxy-pyridin-2-ylamino]-pyrimidin-4-yl}-benzonitrile]
- IC50 (TBK1): < 0.1 µM
- IC50 (IKKε): < 0.1 µM
